Source: patent US11234960B2, “Compositions and methods for improving mitochondrial function and treating neurodegenerative diseases and cognitive disorders” (Amazentis SA, priority 2010, dated 2022)

Assays:
normal mice = experiment: Contextual fear conditioning (contextual memory) in normal mice; format: in vivo; details: punicalagin approx. 90 mg/kg/day 3 months; for contextual memory, freezing 24 hours after training: urolithin A approx. 55 mg/kg/day 2.5 months (FIG. 46); for memory retention, extinction of contextual memory over days 1-5: urolithin A approx. 55 mg/kg/day 2.5 months (FIG. 47)
Method: Beginning at 3 months of age, mice were either fed (i) a standard control diet such as AIN-93G; (ii) a diet containing punicalagin at a concentration of […], so as to deliver an approximate dose of 90 mg/kg/day (for a period of 3 months); or (iii) a diet containing urolithin A at a concentration of […], so as to deliver an approximate dose of 55 mg/kg/day (for a period of 2.5 months). Actual doses vary slightly depending on the food consumption of each individual mouse, as well as the weight of the mouse. Behavioral assessment of cognition was measured after this period.
To examine the effect of pomegranate-derived compounds on memory and cognition, mice were examined for improvements in contextual memory utilizing the contextual fear conditioning assay. Mice were trained in a fear conditioning chamber as described in Example 19.
During training, animals were placed into the chamber one at a time. After four minutes of exploration inside the chamber, one foot shock (2 seconds and 0.4 mA) was administered, followed by a second foot shock (2 seconds and 0.4 mA) one minute later. Thirty seconds after the second foot shock, the mouse was placed back into its home cage.
One day later, trained animals were returned to the chamber for a period of three minutes. During this period mice were monitored for their movement. The amount of time spent immobile or “frozen” was scored as a percentage of the total time (3 minutes) under observation. The time spent immobile is a measure of the strength of the memory of the mice to recall the context in which they were trained.
To determine the effect of these pomegranate-derived compounds on memory retention, normal mice fed either (i) a control diet; (ii) punicalagin (for a period of 3 months) or (iii) urolithin A (for a period of 2.5 months) were studied for their memory recall on days 1, 2, 3, 4 and 5 after the initial contextual fear training.
Animals were placed in the same chamber and context for 3 min daily (same time of day, however no shock this time) for the 5 days that followed the initial testing. Freezing behavior induced by the simple contextual recognition by the animals of the chamber, where they received the initial shock, was measured during each of these daily 3-minute periods. The ability to recognize this environment in the absence of the stimulus is a measurement of contextual memory.

[1] = tested on: C57BL6/J mice fed standard chow diet; experiment: Body composition (EchoMRI) in standard chow diet fed mice; format: in vivo; details: 2 weeks of treatment, ellagic acid 75 mkd; for percentage of lean mass (EchoMRI): urolithin A 55 mkd food admix (FIG. 18A); for percentage of fat mass (EchoMRI): urolithin A 55 mkd food admix (FIG. 18B)
From the text: Male C57BL6/J mice were purchased from Charles River Laboratory (L'Arbresle, France) at the age of 7 weeks and acclimatized to the animal facility for 2 weeks before initiation of experiments. Mice were housed in groups of 5 in standard housing conditions, with a 12 hr light-dark cycle and free access to food and water. Beginning at 9 weeks of age, mice were fed a high-fat diet (HFD) (60% kcal from fat; D12492; Research Diets Inc., New Brunswick, N.J., USA) for fourteen weeks. Body weight was monitored weekly.
Mice in different treatment groups were administered (i) urolithin A mixed with food (food admix) to reach a dosing of 55 mg/kg body weight/day (mkd); (ii) ellagic acid mixed with food (food admix) to reach a dosing of 75 mkd; (iii) punicalagin (gavage) to reach a dosing of 90 mkd; or (iv) pomegranate extract (PE) (gavage) to reach a dosing of 140 mkd of total polyphenols. A typical pomegranate extract used in these experiments had the following composition: polyphenols, 140 mkd; punicalagin, 13.1 mkd; and ellagic acid, 13.2 mkd. For animals treated by gavage, gavage was performed daily (7 days/week) between 8:00 and 10:00 a.m.; compounds were mixed with saline solution (0.9% NaCl) and provided at a final volume of 5 mL/kg of body weight. Mice in high-fat control groups were fed with the same diet as the experimental animals. Mice in corresponding different control groups were administered either high-fat diet alone or high-fat diet plus daily gavage with vehicle (saline). Another control group of mice were fed standard chow diet alone.
Body composition was monitored by EchoMRI (Echo Medical Systems, Houston, Tex., USA) 5 weeks after the initiation of the treatment for high-fat diet fed mice and 2 weeks after the initiation of the treatment for chow diet fed mice. Animals were placed individually into a plastic cylinder and then introduced into an EchoMRI system for about 2 min for body composition scanning (lean and fat mass).

[2] = tested on: AMP-activated protein kinase (AMPK); experiment: AMPK phosphorylation (Western blot) in C2C12 myotubes; format: cell-based; details: 1 hr, 50 μM, relative to control treated cells (FIG. 5A)
Method: C2C12 myoblasts were differentiated to myotubes by serum deprivation for 4 days (Canto et al. (2009) Nature. 458:1056-60). Myotubes were incubated for 1 hr with resveratrol (RSV), which served as a positive control, or ellagic acid (EA) or urolithin A (UL) at a final concentration of 50 μM (all dissolved in DMSO, final concentration 0.1%). DMSO was used as a control (final concentration of DMSO: 0.1%). At the end of the treatment, cells were washed 3 times with PBS, and AMP-activated protein kinase (AMPK) was assessed by Western blot. Following compound treatment, C2C12 cells were lysed in buffer containing phosphatase inhibitors, and protein concentration was determined using a standard Bradford assay. The equivalent of 25 μg of protein was used for separation on a 10% SDS-PAGE gel and subsequently transferred by standard Western blotting procedures. Antibodies directed to AMPK (Cell Signaling) and phosphorylated AMPK (P-AMPK, Cell Signaling) were used for detection.

C. elegans strain SJ4103 = experiment: Mitochondrial GFP reporter in muscle of C. elegans strain SJ4103; format: in vivo; details: 50 μM from eggs, GFP monitored after one day of adulthood (FIG. 26)
Method: C. elegans strains were cultured at 20° C. on nematode growth media agar plates seeded with HT115 bacteria and containing 50 μM urolithin A or a corresponding concentration of DMSO as a control. […]. The strains used were the SJ4103 (zcIs14[myo-3::GFP(mit)]), which is a stable transgenic line expressing a mitochondrially localized green fluorescent protein (GFP) with a cleavable mitochondrial import signal peptide under the control of the specific body wall muscle promoter myo-3. GFP expression and quantification was carried out according to the protocol previously described (Durieux et al., 2011). Worms were treated with 50 μM urolithin A from eggs, and GFP was monitored after one day of adulthood. Fluorimetric assays were performed using a Victor X4 multilabel plate reader (Perkin-Elmer Life Science). Eighty worms were picked at random (20 worms per well of a black-walled 96-well plate) and each well was read four times and averaged.

Structure (SMILES): O=C1O[C@H]2[C@@H]3OC(=O)c4cc(O)c(O)c(O)c4-c4c(O)c(O)c5oc(=O)c6c(c(O)c(O)c7oc(=O)c4c5c76)-c4c(cc(O)c(O)c4O)C(=O)OC[C@H]3OC(O)[C@@H]2OC(=O)c2cc(O)c(O)c(O)c2-c2c1cc(O)c(O)c2O (mixture of isomers) [punicalagin, 2,3 hexahydroxydiphenoyl-4,6-gallagylglucose]
- contextual memory, freezing 24 hours after training (normal mice): significant improvements in contextual memory
- memory retention, extinction of contextual memory over days 1-5 (normal mice): improved memory retention

Structure (SMILES): O=c1oc2c(O)c(O)cc3c(=O)oc4c(O)c(O)cc1c4c23 [ellagic acid]
- percentage of lean mass (EchoMRI) [1]: statistically significant increase in the percentage of lean mass
- percentage of fat mass (EchoMRI) [1]: reduction in fat mass
- levels of phosphorylation of AMPK (P-AMPK) [2]: increased

Structure (SMILES): O=c1oc2cc(O)ccc2c2ccc(O)cc12 [urolithin A, 3,8-Dihydroxydibenzo-α-pyrone]
- expression of mitochondrial GFP-reporter driven by myo-3 promoter (fluorescence) (C. elegans strain SJ4103): induced the expression of the mitochondrial GFP-reporter
- percentage of lean mass (EchoMRI) [1]: statistically significant increase in the percentage of lean mass
- percentage of fat mass (EchoMRI) [1]: reduction in fat mass
- levels of phosphorylation of AMPK (P-AMPK) [2]: increased
- contextual memory, freezing 24 hours after training (normal mice): significant improvements in contextual memory
- memory retention, extinction of contextual memory over days 1-5 (normal mice): improved memory retention
